According to ChEMBL document CHEMBL1201862, “PubChem BioAssay data set” (2004):
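The compound was tested at five concentrations on cells cultured in 96-well plates, with a 48-hour exposure period. Here, GI50 denotes the concentration required for 50% inhibition of growth.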 The source made the active and inactive calls. Cut-off read from the data, not from the text of the source: active = GI50 up to about 1.1 µM and inactive = higher.

Tests used:
Experiment in all cases: inhibition of tumour cell growth, NCI panel, 48 h
[1] = tested on: LOX IMVI
[2] = tested on: OVCAR-8
[3] = tested on: SK-OV-3
[4] = tested on: SNB-75
[5] = tested on: TK-10
[6] = tested on: SF-539
[7] = tested on: ACHN
[8] = tested on: HCT-116
[9] = tested on: M14
[10] = tested on: SK-MEL-2
[11] = tested on: CAKI-1
[12] = tested on: SK-MEL-5
[13] = tested on: RXF 393
[14] = tested on: 786-0
[15] = tested on: SW-620
[16] = tested on: U-251
[17] = tested on: NCI-H23
[18] = tested on: A498

Measured: GI50

CC(=O)C(CN(C)C)C(c1ccccc1)c1c(O)c2ccccc2oc1=O (centres undefined)
inactive: [1] > 100 µM | [2] > 100 µM | [3] > 100 µM | [4] 14.3 µM | [5] > 100 µM | [6] > 100 µM | [7] > 100 µM | [8] > 100 µM | [9] > 100 µM | [10] > 100 µM | [11] > 100 µM | [12] > 100 µM | [13] > 100 µM | [14] > 100 µM | [15] > 100 µM | [16] > 100 µM | [17] > 100 µM

O=c1cc2ccccc2nn1Cc1ccccc1Cl
inactive: [1] > 100 µM | [2] > 100 µM | [3] > 100 µM | [4] 25.3 µM | [5] > 100 µM | [6] > 100 µM | [7] > 100 µM | [8] > 100 µM | [9] > 100 µM | [10] > 100 µM | [11] > 100 µM | [12] > 100 µM | [18] > 100 µM | [14] > 100 µM | [15] > 100 µM | [16] > 100 µM | [17] 88.9 µM

O=C(CC(=O)c1ccccc1)CC(O)(c1ccccc1)c1ccccc1
inactive: [2] 5.26 µM | [3] 9.31 µM | [4] 9.55 µM | [5] 9.82 µM | [7] 6.27 µM | [8] 4.59 µM | [9] 3.61 µM | [10] 9.95 µM | [11] 2.9 µM | [12] 3.52 µM | [18] 12.1 µM | [15] 4.02 µM | [16] 3.32 µM | [17] 3.37 µM

COc1cc(Cc2cc(OC)c(OC)c(OC)c2)ccc1O
inactive: [1] 8.57 µM | [2] 25.5 µM | [3] 39.4 µM | [4] 2.88 µM | [5] 88.5 µM | [6] 9.31 µM | [7] 40.9 µM | [8] 5.19 µM | [9] 5 µM | [10] 3.11 µM | [11] 62.1 µM | [12] 3.85 µM | [14] 29.7 µM | [15] 3.56 µM | [16] 19.9 µM | [17] 11.2 µM

CCOc1ccc(C2=C(Cl)c3cc(OC)c(OC)cc3C2Cl)cc1 (centres undefined)
inactive: [1] 19.5 µM | [2] 36.4 µM | [3] > 100 µM | [4] 44.1 µM | [5] 79.8 µM | [6] 29.8 µM | [7] 31.6 µM | [9] 35.8 µM | [10] 23.1 µM | [11] 46.1 µM | [12] 18.3 µM | [18] 19.8 µM | [15] 29.2 µM | [16] 18.2 µM | [17] 44.4 µM

COc1ccc(C=O)c(NC(=O)C(C)C)c1
inactive: [1] 31.7 µM | [2] 30.8 µM | [3] > 100 µM | [4] 30.6 µM | [5] 85.7 µM | [6] 40.4 µM | [7] 29.8 µM | [8] 15.8 µM | [9] 37.6 µM | [10] 37.6 µM | [12] > 10 µM | [13] 12.3 µM | [18] 49.7 µM | [14] 74.6 µM | [15] > 10 µM | [16] 77.1 µM | [17] 26 µM

CC(=O)OCCOCNC(=S)N/N=C(\C)c1cnc2ccccc2n1
inactive: [1] 38.6 µM | [2] 33.9 µM | [3] 33.3 µM | [4] 52.7 µM | [5] > 100 µM | [6] 55.8 µM | [7] 11.5 µM | [8] 25.4 µM | [9] 36 µM | [10] 33.3 µM | [12] 25.1 µM | [13] 33 µM | [18] > 100 µM | [14] 39.7 µM | [15] 28.2 µM | [16] 29.1 µM | [17] 72.8 µM

O=C(Cc1ccccc1)NN1C(=O)C(Cl)C1c1ccc(Cl)cc1 (centres undefined)
inactive: [1] > 100 µM | [2] > 100 µM | [3] > 100 µM | [4] 84.5 µM | [5] > 100 µM | [7] > 100 µM | [8] > 100 µM | [9] > 100 µM | [10] > 100 µM | [11] > 100 µM | [12] > 100 µM | [13] > 100 µM | [14] > 100 µM | [15] > 100 µM | [16] > 100 µM | [17] > 100 µM

O=c1cccccc1NCCCCCCNc1cccccc1=O
inactive: [1] > 100 µM | [2] > 100 µM | [3] > 100 µM | [4] 57.7 µM | [5] > 100 µM | [7] > 100 µM | [8] > 100 µM | [9] > 100 µM | [10] > 100 µM | [11] > 100 µM | [12] > 100 µM | [18] > 100 µM | [14] > 100 µM | [15] > 100 µM | [16] > 100 µM | [17] > 100 µM

S=C(N/N=C/c1ccccc1)NC12CC3CC(CC(C3)C1)C2
inactive: [1] 22.8 µM | [2] 60 µM | [3] > 100 µM | [5] > 100 µM | [6] 12.4 µM | [7] 51.8 µM | [8] 29.5 µM | [9] 46.6 µM | [10] 40 µM | [11] 49.3 µM | [12] 27.2 µM | [13] 23.7 µM | [18] 63.4 µM | [14] 56.1 µM | [15] 30.5 µM | [16] 53.8 µM | [17] 55.8 µM

O=c1cc[nH]c2c1ccc1ncccc12
inactive: [1] > 100 µM | [2] > 100 µM | [3] > 100 µM | [4] > 100 µM | [5] > 100 µM | [6] > 100 µM | [7] > 100 µM | [8] > 100 µM | [9] > 100 µM | [10] > 100 µM | [12] > 100 µM | [13] > 100 µM | [18] > 100 µM | [14] > 100 µM | [15] > 100 µM | [16] > 100 µM | [17] > 100 µM

CCCCCC(=O)c1ccc2[nH]c3c(C)cc([N+](=O)[O-])c(C)c3c2c1
inactive: [1] > 100 µM | [2] 75.5 µM | [4] > 100 µM | [5] 26.6 µM | [6] 45.6 µM | [7] > 100 µM | [8] 90.8 µM | [9] 70 µM | [10] > 100 µM | [11] > 100 µM | [12] > 100 µM | [14] 36.1 µM | [15] 80.2 µM | [17] 95.3 µM

O=C(O)C(Cl)(Cl)Cl
inactive: [1] > 100 µM | [2] > 100 µM | [3] > 100 µM | [4] 63.1 µM | [5] > 100 µM | [6] > 100 µM | [7] > 100 µM | [8] > 100 µM | [9] > 100 µM | [10] > 100 µM | [11] > 100 µM | [12] > 100 µM | [13] > 100 µM | [15] > 100 µM | [16] > 100 µM | [17] > 100 µM
